Experimental data as given in patent publication EP0377642B1, “HERBICIDES FOR WEED CONTROL IN RICE” (E.I. DU PONT DE NEMOURS AND COMPANY, priority 1987, dated 1989).

Tests used:
Assay type in all cases: in vivo
[1] = system: rice; assay: Herbicidal efficacy in Indonesia, applied 2 weeks after transplanting (Table 6); conditions: 2 weeks after application
From the text: (§1) Methyl 2-[[[[(4-methoxy-6-methyl-1,3,5-triazin-2-yl)amino]carbonyl]amino]sulfonyl]benzoate (Compound 1) and mixtures thereof with other compounds were applied as a spray (using a hand sprayer) to rice (either transplanted or direct seeded) in several rice growing areas in Southeast Asia and in the U.S. Tables 1-28 contain the results of these tests and clearly exemplify the utility of this invention. The details of each application are included in the appropriate table. [drawing 2]

[2] = system: Echinochloa crus-galli; assay: as above
From the text: as §1

[3] = system: Scirpus juncoides; assay: as above
From the text: as §1

[4] = system: Monochoria vaginalis; assay: as above
From the text: as §1

[5] = system: Salvinia molesta; assay: as above
From the text: as §1

[6] = system: CI; assay: Herbicidal efficacy in relation to application timing in Indonesia (Table 5)
From the text: as §1

[7] = system: Ludwigia linifolia; assay: Herbicidal efficacy with 2,4-D in Thailand (Table 17); conditions: 4 GAI/HA; 14 days after treatment
From the text: as §1

[8] = system: rice; assay: as above; conditions: 4 GAI/HA; 14 days after treatment
From the text: as §1

[9] = system: Sphenoclea zeylanica; assay: as above; conditions: 4 GAI/HA; 14 days after treatment
From the text: as §1

[10] = system: Cyperus difformis; assay: as above; conditions: 4 GAI/HA; 14 days after treatment
From the text: as §1

[11] = system: MC; assay: as above; conditions: 4 GAI/HA; 14 days after treatment
From the text: as §1

[12] = system: transplanted rice; assay: Crop tolerance of transplanted rice (Table 7); conditions: rating 0-10
From the text: as §1

[13] = system: weeds; assay: Greenhouse test of Compound 1 and Compound 2, herbicidal efficacy (Table 26); conditions: rated 24 days after treatment; for % CONTROL OR INJURY AT: Alisma triviale; for % CONTROL OR INJURY AP: Alternanthera philoxeroides; for % CONTROL OR INJURY CD: Cyperus difformis; for % CONTROL OR INJURY SR: Sagittaria rigida
From the text: as §1

[14] = system: transplanted rice (var. Nihonbare); assay: Crop tolerance of transplanted rice, combinations with Thiobencarb, Dimepiperate, Esprocarb and Dymron (Table 15); conditions: 15 days after application
From the text: as §1

[15] = 3 GAI/HA, 2 weeks after application
[16] = 3 GAI/HA, 5 weeks after application
[17] = 3 GAI/HA, 7 weeks after application
[18] = 4 GAI/HA, 2 weeks after application
[19] = 4 GAI/HA, 5 weeks after application
[20] = 4 GAI/HA, 7 weeks after application
[21] = 6 GAI/HA, 2 weeks after application
[22] = 6 GAI/HA, 5 weeks after application
[23] = 6 GAI/HA, 7 weeks after application
[24] = 8 GAI/HA, 2 weeks after application
[25] = 8 GAI/HA, 5 weeks after application
[26] = 8 GAI/HA, 7 weeks after application

COC(=O)c1ccccc1S(=O)(=O)NC(=O)Nc1nc(C)nc(OC)n1 [Compound 1, Methyl 2-[[[[(4-methoxy-6-methyl-1,3,5-triazin-2-yl)amino]carbonyl]amino]sulfonyl]benzoate]
% CONTROL RICE ([1]; 3 GAI/HA): 10% | % CONTROL RICE ([1]; 4 GAI/HA): 10% | % CONTROL RICE ([1]; 6 GAI/HA): 10% | % CONTROL RICE ([1]; 8 GAI/HA): 10% | % CONTROL EC [2, 15]: 20% | % CONTROL EC [2, 16]: 30% | % CONTROL EC [2, 17]: 0% | % CONTROL EC [2, 18]: 20% | % CONTROL EC [2, 19]: 30% | % CONTROL EC [2, 20]: 0% | % CONTROL EC [2, 21]: 20% | % CONTROL EC [2, 22]: 30% | % CONTROL EC [2, 23]: 0% | % CONTROL EC [2, 24]: 20% | % CONTROL EC [2, 25]: 30% | % CONTROL EC [2, 26]: 0% | % CONTROL SJ [3, 15]: 60% | % CONTROL SJ [3, 16]: 90% | % CONTROL SJ [3, 17]: 70% | % CONTROL SJ [3, 18]: 60% | % CONTROL SJ [3, 19]: 100% | % CONTROL SJ [3, 20]: 70% | % CONTROL SJ [3, 21]: 90% | % CONTROL SJ [3, 22]: 100% | % CONTROL SJ [3, 23]: 80% | % CONTROL SJ [3, 24]: 80% | % CONTROL SJ [3, 25]: 100% | % CONTROL SJ [3, 26]: 80% | % CONTROL MV [4, 15]: 100% | % CONTROL MV [4, 16]: 100% | % CONTROL MV [4, 17]: 100% | % CONTROL MV [4, 18]: 90% | % CONTROL MV [4, 19]: 100% | % CONTROL MV [4, 20]: 100% | % CONTROL MV [4, 21]: 100% | % CONTROL MV [4, 22]: 100% | % CONTROL MV [4, 23]: 100% | % CONTROL MV [4, 24]: 100% | % CONTROL MV [4, 25]: 100% | % CONTROL MV [4, 26]: 100% | % CONTROL SM [5, 15]: 30% | % CONTROL SM [5, 16]: 70% | % CONTROL SM [5, 17]: 80% | % CONTROL SM [5, 18]: 40% | % CONTROL SM [5, 19]: 70% | % CONTROL SM [5, 20]: 80% | % CONTROL SM [5, 21]: 30% | % CONTROL SM [5, 22]: 90% | % CONTROL SM [5, 23]: 90% | % CONTROL SM [5, 24]: 40% | % CONTROL SM [5, 25]: 80% | % CONTROL SM [5, 26]: 90% | % CONTROL CI ([6]; 3 WAT, 2 GAI/HA, evaluation 1): 0% | % CONTROL CI ([6]; 3 WAT, 2 GAI/HA, evaluation 2): 0% | % CONTROL CI ([6]; 3 WAT, 2 GAI/HA, evaluation 3): 0% | % CONTROL CI ([6]; 3 WAT, 3 GAI/HA, evaluation 1): 20% | % CONTROL CI ([6]; 3 WAT, 3 GAI/HA, evaluation 2): 0% | % CONTROL CI ([6]; 3 WAT, 3 GAI/HA, evaluation 3): 0% | % CONTROL CI ([6]; 3 WAT, 4 GAI/HA, evaluation 1): 20% | % CONTROL CI ([6]; 3 WAT, 4 GAI/HA, evaluation 2): 0% | % CONTROL CI ([6]; 3 WAT, 4 GAI/HA, evaluation 3): 0% | % CONTROL CI ([6]; 3 WAT, 6 GAI/HA, evaluation 1): 20% | % CONTROL CI ([6]; 3 WAT, 6 GAI/HA, evaluation 2): 0% | % CONTROL CI ([6]; 3 WAT, 6 GAI/HA, evaluation 3): 0% | % CONTROL CI ([6]; 3 WAT, 8 GAI/HA, evaluation 1): 20% | % CONTROL CI ([6]; 3 WAT, 8 GAI/HA, evaluation 2): 0% | % CONTROL CI ([6]; 3 WAT, 8 GAI/HA, evaluation 3): 0% | % CONTROL CI ([6]; 4 WAT, 2 GAI/HA, evaluation 1): 0% | % CONTROL CI ([6]; 4 WAT, 2 GAI/HA, evaluation 2): 0% | % CONTROL CI ([6]; 4 WAT, 2 GAI/HA, evaluation 3): 0% | % CONTROL CI ([6]; 4 WAT, 3 GAI/HA, evaluation 1): 0% | % CONTROL CI ([6]; 4 WAT, 3 GAI/HA, evaluation 2): 0% | % CONTROL CI ([6]; 4 WAT, 3 GAI/HA, evaluation 3): 0% | % CONTROL CI ([6]; 4 WAT, 4 GAI/HA, evaluation 1): 20% | % CONTROL CI ([6]; 4 WAT, 4 GAI/HA, evaluation 2): 20% | % CONTROL CI ([6]; 4 WAT, 4 GAI/HA, evaluation 3): 0% | % CONTROL CI ([6]; 4 WAT, 6 GAI/HA, evaluation 1): 20% | % CONTROL CI ([6]; 4 WAT, 6 GAI/HA, evaluation 2): 20% | % CONTROL CI ([6]; 4 WAT, 6 GAI/HA, evaluation 3): 0% | % CONTROL CI ([6]; 4 WAT, 8 GAI/HA, evaluation 1): 20% | % CONTROL CI ([6]; 4 WAT, 8 GAI/HA, evaluation 2): 20% | % CONTROL CI ([6]; 4 WAT, 8 GAI/HA, evaluation 3): 0% | % CONTROL CI ([6]; 5 WAT, 2 GAI/HA, evaluation 1): 0% | % CONTROL CI ([6]; 5 WAT, 2 GAI/HA, evaluation 2): 0% | % CONTROL CI ([6]; 5 WAT, 2 GAI/HA, evaluation 3): 0% | % CONTROL CI ([6]; 5 WAT, 3 GAI/HA, evaluation 1): 50% | % CONTROL CI ([6]; 5 WAT, 3 GAI/HA, evaluation 2): 20% | % CONTROL CI ([6]; 5 WAT, 3 GAI/HA, evaluation 3): 0% | % CONTROL CI ([6]; 5 WAT, 4 GAI/HA, evaluation 1): 60% | % CONTROL CI ([6]; 5 WAT, 4 GAI/HA, evaluation 2): 30% | % CONTROL CI ([6]; 5 WAT, 4 GAI/HA, evaluation 3): 0% | % CONTROL CI ([6]; 5 WAT, 6 GAI/HA, evaluation 1): 60% | % CONTROL CI ([6]; 5 WAT, 6 GAI/HA, evaluation 2): 40% | % CONTROL CI ([6]; 5 WAT, 6 GAI/HA, evaluation 3): 0% | % CONTROL CI ([6]; 5 WAT, 8 GAI/HA, evaluation 1): 60% | % CONTROL CI ([6]; 5 WAT, 8 GAI/HA, evaluation 2): 60% | % CONTROL CI ([6]; 5 WAT, 8 GAI/HA, evaluation 3): 30% | % CONTROL OR INJURY LL [7]: 87% | % CONTROL OR INJURY RICE [8]: 16.6% | % CONTROL OR INJURY SZ [9]: 100% | % CONTROL OR INJURY CD [10]: 100% | % CONTROL OR INJURY MC [11]: 100% | CROP TOLERANCE ([12]; 3 GAI/HA, 1 WAA): 0 | CROP TOLERANCE ([12]; 3 GAI/HA, 2WAA): 0 | CROP TOLERANCE ([12]; 3 GAI/HA, 4WAA): 0 | CROP TOLERANCE ([12]; 3 GAI/HA, 6WAA): 0 | CROP TOLERANCE ([12]; 4 GAI/HA, 1 WAA): 0 | CROP TOLERANCE ([12]; 4 GAI/HA, 2WAA): 0 | CROP TOLERANCE ([12]; 4 GAI/HA, 4WAA): 0 | CROP TOLERANCE ([12]; 4 GAI/HA, 6WAA): 0 | CROP TOLERANCE ([12]; 6 GAI/HA, 1 WAA): 1 | CROP TOLERANCE ([12]; 6 GAI/HA, 2WAA): 0 | CROP TOLERANCE ([12]; 6 GAI/HA, 4WAA): 0 | CROP TOLERANCE ([12]; 6 GAI/HA, 6WAA): 0 | CROP TOLERANCE ([12]; 8 GAI/HA, 1 WAA): 1 | CROP TOLERANCE ([12]; 8 GAI/HA, 2WAA): 1 | CROP TOLERANCE ([12]; 8 GAI/HA, 4WAA): 0 | CROP TOLERANCE ([12]; 8 GAI/HA, 6WAA): 0 | % CONTROL OR INJURY AT ([13]; rate 1 g ai/ha): 80% | % CONTROL OR INJURY AT ([13]; rate 2 g ai/ha): 95% | % CONTROL OR INJURY AT ([13]; rate 4 g ai/ha): 95% | % CONTROL OR INJURY AT ([13]; rate 8 g ai/ha): 95% | % CONTROL OR INJURY AP ([13]; rate 1 g ai/ha): 0% | % CONTROL OR INJURY AP ([13]; rate 2 g ai/ha): 0% | % CONTROL OR INJURY AP ([13]; rate 4 g ai/ha): 60% | % CONTROL OR INJURY AP ([13]; rate 8 g ai/ha): 70% | % CONTROL OR INJURY CD ([13]; rate 1 g ai/ha): 60% | % CONTROL OR INJURY CD ([13]; rate 2 g ai/ha): 60% | % CONTROL OR INJURY CD ([13]; rate 4 g ai/ha): 80% | % CONTROL OR INJURY CD ([13]; rate 8 g ai/ha): 100% | % CONTROL OR INJURY SR ([13]; rate 1 g ai/ha): 90% | % CONTROL OR INJURY SR ([13]; rate 2 g ai/ha): 95% | % CONTROL OR INJURY SR ([13]; rate 4 g ai/ha): 95% | % CONTROL OR INJURY SR ([13]; rate 8 g ai/ha): 95% | CROP TOLERANCE (Nihonbare) DW, dry weight relative to untreated check ([14]; 4 GAI/HA): 107% | CROP TOLERANCE (Nihonbare) PH, plant height relative to untreated check ([14]; 4 GAI/HA): 103% | CROP TOLERANCE (Nihonbare) VA, visual crop injury ([14]; 4 GAI/HA): 0% | CROP TOLERANCE (Nihonbare) DW, dry weight relative to untreated check ([14]; 8 GAI/HA): 83% | CROP TOLERANCE (Nihonbare) PH, plant height relative to untreated check ([14]; 8 GAI/HA): 95% | CROP TOLERANCE (Nihonbare) VA, visual crop injury ([14]; 8 GAI/HA): 3%
